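All cell lines were grown in 96-well plates and treated with compound for 48 hours. GI50 is the concentration that inhibits growth by half. The concentration for full growth arrest is given as TGI.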

What all share (experiment): NCI tumour cell line growth inhibition, 48 h
Experiment [1] relates to ACHN renal.
The test system of experiment [2] is HCT-15 colon.
The subject of experiment [3] is HOP-62 NSCLC.
The test system of experiment [4] is NCI-H522 lung.
Experiment [5] has as its system OVCAR-3 ovarian.
Experiment [6] has as its system OVCAR-8 ovarian.
The subject of experiment [7] is SNB-19 CNS.
For experiment [8], the system named is TK-10 renal.
The test system of experiment [9] is HS 578T breast.
Experiment [10] deals with PC-3 prostate.

For `C=C[C@]1(C)CCC2=C(CCC3C2(C)CCC[C@@]3(C)COC(C)=O)C1` (some centres undefined), the TGI was found to be 38.7 µM in [1]; 30.8 µM in experiment [2]; 40.2 µM in experiment [3]; 28.7 µM in [4]; 32.1 µM in [5]; 34.6 µM in experiment [6]. In addition, the TGI in experiment [7] worked out at 31.9 µM; in [8] it was 59 µM.

`O=C1CCSC2=C1SCc1sccc12`: the TGI in experiment [2], in [3], in experiment [4], in [5], in experiment [6] and in experiment [7] was over 100 µM each time. Besides, the TGI in experiment [8] was over 100 µM.

As to `CCNC(=O)O/N=C1\CCC2[C@@H]3CC=C4C[C@@H](OC5CCCCO5)CC[C@]4(C)C3CC[C@]12C` (some centres undefined), the TGI is 2.81 µM in [1]; over 100 µM in experiment [3]; 10.7 µM in experiment [5]; 18.2 µM in [6]; 9.94 µM in experiment [7]; 3.81 µM in experiment [8].

Regarding `CC(C)NC(=O)CCN(C(=O)O)S(=O)(=O)c1ccc(NC(=O)c2ccccc2)cc1`, the TGI was over 100 µM in experiment [1]; over 59.8 µM in experiment [2]; over 100 µM in [3]; over 100 µM in experiment [4]; over 100 µM in experiment [5]; over 94.7 µM in [6]. For the same molecule, the TGI in [7] and in experiment [8] was over 100 µM throughout.

For `Cc1ccccc1-n1c2nc(=O)n(C)c(=O)c-2nc2ccccc21`, the TGI in experiment [1] was 21 µM; in experiment [2], 24.3 µM; in [3] it was over 100 µM; in experiment [4], 29.4 µM; in experiment [5], 6.94 µM; in experiment [6] it was 33.6 µM. The TGI in experiment [7] was 28.8 µM; in experiment [8], 35.2 µM.

In the case of `Cc1ccc(NC(=O)/C(Cl)=C(/Cl)C(=O)O)cc1`, the TGI in experiment [1] is 30.1 µM; in experiment [2], 28.9 µM; in [3], over 100 µM; in experiment [4], 6.11 µM; in experiment [5], 32.4 µM; in experiment [7], over 100 µM. The TGI in experiment [8] was 33 µM.

In the case of `CC1(c2ccccc2)CC(c2cccc([N+](=O)[O-])c2)=NO1` (centres undefined), the TGI in experiment [1], in [2], in experiment [3], in experiment [4], in experiment [5] and in experiment [6] was over 100 µM each time. In [8], this molecule yielded a TGI of over 100 µM.

In the case of `COc1ccc2nc3cc(Cl)ccc3c(Sc3ccc([N+](=O)[O-])cc3)c2c1`, the TGI in experiment [1] is over 10 µM; in experiment [2] it was over 100 µM; in [3], over 100 µM; in [4], over 100 µM; in experiment [5], over 100 µM; in [6], over 100 µM. The TGI in experiment [7] and in [8] was over 100 µM in each case. For the same molecule, the GI50 in experiment [2], in experiment [3], in experiment [4], in [5], in experiment [6] and in [7] was over 100 µM each time. In experiment [8], the GI50 was over 100 µM.

Consider `COC(=O)C(Cc1nc2ccccc2nc1C)/C(=N\NC(N)=O)C(=O)Nc1cccc([N+](=O)[O-])c1` (centres undefined), for which the TGI is over 100 µM in [1]; over 100 µM in experiment [2]; over 100 µM in experiment [3]; 27.3 µM in [4]; over 100 µM in experiment [5]; over 100 µM in [6]. In addition, the TGI in experiment [7] and in experiment [8] was over 100 µM each time.

`Cc1cc(C)nc(NS(=O)(=O)c2ccc(Nc3c4ccc(Cl)cc4nc4c(C(=O)NCCN(C)C)cccc34)cc2)n1`: the TGI in [1], in experiment [2], in experiment [3], in experiment [4], in experiment [5] and in [6] was over 100 µM throughout. For the same molecule, the TGI in experiment [7] and in [8] was over 100 µM throughout.

On to `COc1cc([N+](=O)[O-])c(OC)cc1-c1nc2sc(Cl)cn2c1/C=N/NC1=NCCN1`, for which the GI50 in experiment [1] was 1.32 µM; in [2], 1.64 µM; in experiment [3], 1.2 µM; in [9] it was 2.22 µM; in experiment [4] it was 2.93 µM; in experiment [5], 0.882 µM. Moreover, the GI50 is 1.71 µM in [10] and 1.89 µM in [8]. Moreover, the TGI was 2.6 µM in [1]; 2.99 µM in experiment [2]; 2.53 µM in experiment [3]; 4.94 µM in experiment [9]; over 29.7 µM in experiment [4]; 2.62 µM in experiment [5]. Also, the results for the TGI in experiment [10] and in experiment [8] were 3.16 µM and 3.36 µM, respectively.

In the case of `CC#CC1C2CCCC1(CSc1ccccc1)NC(=O)O2` (centres undefined), the TGI in [1], in experiment [2], in experiment [3], in [4], in experiment [5] and in experiment [6] was over 100 µM in each case. Besides, the TGI in experiment [7] and in experiment [8] was over 100 µM each time.

In the case of `C=C(C(=C)P(=S)(c1ccccc1)c1ccccc1)P(=S)(c1ccccc1)c1ccccc1`, the TGI in experiment [1], in experiment [2], in experiment [3], in experiment [4], in [5] and in experiment [6] was over 100 µM each time. The TGI in [7] and in experiment [8] was over 100 µM throughout.

As to `Cn1c(/C=C/[N+](=O)[O-])cc2ccccc21`, the GI50 in experiment [1] is 3.42 µM; in experiment [2], 3.24 µM; in [3] it was 8.39 µM; in [4] it was 2.22 µM; in experiment [5], 1.66 µM; in experiment [6], 3.17 µM. The GI50 in experiment [10] is 6.75 µM; in experiment [7], 11.1 µM; in experiment [8], 4.04 µM. Further, the TGI amounted to 13.2 µM in [1]; 11.2 µM in experiment [2]; 27.6 µM in experiment [3]; 7.43 µM in [4]; 3.49 µM in experiment [5]; 31.7 µM in experiment [6]. Further, the figures for the TGI in experiment [10], in experiment [7] and in experiment [8] were 35.5 µM, 28.8 µM and 14.9 µM, respectively.

Turning to `COc1ccccc1NC(=O)c1nc2ccc([N+](=O)[O-])cc2nc1C`, the TGI in experiment [1], in [2], in experiment [3], in [4], in [5] and in experiment [6] was over 100 µM in each case. Further, the TGI in [7] and in experiment [8] was over 100 µM throughout.

With `O=C(/C(=C\c1ccc(Cl)cc1)c1ccccc1)c1ccccc1`, the TGI in experiment [1], in experiment [2], in experiment [3], in experiment [4], in experiment [6] and in [8] was over 100 µM each time.

`COc1ccc(C(=O)C(c2ccc(OCc3ccccc3)cc2)c2ccc(OCc3ccccc3)cc2)cc1`: the TGI in experiment [1], in experiment [2], in [3], in experiment [4], in [5] and in experiment [6] was over 100 µM each time. Further, the TGI in [7] and in experiment [8] was over 100 µM in each case.

For the molecule `CN1CCN(C)C12C=CC=CC21CC1`, the TGI in experiment [1], in experiment [2], in [3], in experiment [4], in [5] and in experiment [6] was over 100 µM throughout. Moreover, the TGI in experiment [7] and in experiment [8] was over 100 µM throughout.

With `CC1=CC(N2C(=O)C(C)=CC2O)NC1=O` (centres undefined), the TGI in [3], in experiment [4], in [5], in [6], in experiment [7] and in [8] was over 100 µM throughout.

As for `Nc1cc(=O)n(-c2ccccc2)c(=S)n1-c1ccccc1`, the TGI in [1], in experiment [2], in [3], in [4], in experiment [5] and in [6] was over 100 µM in each case. In addition, the TGI in experiment [7] and in experiment [8] was over 100 µM throughout.

For `O=C(COC(=O)c1cccc2c(=O)c3ccccc3[nH]c12)Nc1ccc(C(=O)O)cc1`, the TGI in [1], in experiment [3], in experiment [4], in experiment [5], in experiment [6] and in experiment [7] was over 100 µM throughout. This molecule gave a TGI in [8] of over 10 µM.

As for `CC(=O)NC1C(OCc2ccccc2)OC(COC(=O)CCCCCCCCCCNc2ccc([N+](=O)[O-])c3[nH]c4ccccc4c(=O)c23)C(O)C1OC(C)C(=O)NC(C)C(=O)NC(CCC(N)=O)C(=O)OCc1ccccc1` (centres undefined), the TGI in experiment [1], in experiment [2], in experiment [3], in experiment [4], in experiment [5] and in experiment [6] was over 100 µM in each case. Besides, the TGI in experiment [7] and in experiment [8] was over 100 µM throughout.

For the molecule `COC(=O)C1=C(C(=O)OC)C2(C)Nc3ccccc3C2=C(c2ccccc2)C1` (centres undefined), the TGI in [1] worked out at 62.3 µM; in [2], 51.8 µM; in experiment [3], 50.1 µM; in experiment [4], 35.9 µM; in experiment [5] it was 52.2 µM; in experiment [6] it was 61.7 µM. The TGI stood at 75.5 µM in [7] and 69.9 µM in experiment [8].

`Clc1ccc(-c2c(C3=NCCCN3)nnn2-c2ccccc2)cc1`: the TGI in experiment [1], in experiment [2], in experiment [3], in experiment [4], in experiment [5] and in [6] was over 100 µM each time. Moreover, the TGI in experiment [7] and in experiment [8] was over 100 µM each time.

For the molecule `Clc1cc(Cl)cc(N2N=C(c3cccc(Nc4ccncc4)c3)CC2c2ccc3c(c2)OCO3)c1` (centres undefined), the GI50 is 1.69 µM in [1]; 1.76 µM in experiment [2]; 1.79 µM in experiment [3]; 1.73 µM in experiment [5]; 1.59 µM in experiment [10]. Further, the TGI in experiment [1] came out at 3.06 µM; in experiment [2], 3.44 µM; in experiment [3], 3.64 µM; in [5], 3.27 µM; in experiment [10], 3.18 µM.

Take `NCC1OC(OC2C(CO)OC(OC3C(O)C(N)CC(N)C3OC3OC(CO)C(O)CC3N)C2O)C(N)C(O)C1OC1OC(CO)C(O)C(O)C1O` (centres undefined): the GI50 in [1], in experiment [2], in experiment [3], in experiment [9], in experiment [5] and in experiment [6] was over 50 µg/mL throughout. In addition, the GI50 in experiment [10], in [7] and in experiment [8] was over 50 µg/mL in each case. For the same molecule, the TGI in [1], in experiment [2], in [3], in experiment [9], in experiment [5] and in experiment [6] was over 50 µg/mL throughout. The TGI in experiment [10], in experiment [7] and in [8] was over 50 µg/mL throughout.

As to `CC(=O)Nc1ccc(COC(O)CN2CCCCC2)cc1[N+](=O)[O-]` (centres undefined), the TGI in [1], in [2], in [4], in [5], in experiment [6] and in [10] was over 100 µM each time. Also, the TGI in experiment [7] and in [8] was over 100 µM in each case.

For the molecule `OCCN1CCN2C=C(C3CCCC4N(CCO)CCN34)CCC21` (centres undefined), the TGI in experiment [1] is over 100 µM; in [2] it was over 100 µM; in experiment [3], over 100 µM; in experiment [4], over 70 µM; in experiment [5], over 100 µM; in experiment [6], over 100 µM. Besides, the TGI in [7] and in experiment [8] was over 100 µM in each case.

Take `NNC(=O)N/N=C1\C(=O)N(c2ccc(Cl)c(Cl)c2)C(=O)C(=O)C1c1nc2ccccc2s1` (centres undefined): the TGI in experiment [1], in [2], in [3], in [4], in experiment [5] and in experiment [6] was over 100 µM each time. Also, the TGI in experiment [7] and in experiment [8] was over 100 µM throughout.

These data come from PubChem BioAssay (NCI).
